Laboratory results as given in article PMC8206213, “An L-2-hydroxyglutarate biosensor based on specific transcriptional regulator LhgR” (Nature Communications, 2021).

Experiments:
LHGFR0N7C [1] = target: T1, LHGFR0N7C; experiment: FRET titration of purified sensor with D-2-HG (10 nM to 2 mM) in 50 mM Tris-HCl pH 7.4, Venus/mTFP emission ratio (excitation 430 nm).; format: binding; conditions: SD, n = 3; read-out: apparent Kd in response to D-2-HG
T1 construct: FRET sensor: LhgR truncated by seven C-terminal amino acids between mTFP (N-terminus) and Venus (C-terminus)
Method: Purified L-2-HG biosensors and different compounds were diluted by 50 mM Tris-HCl buffer (pH 7.4), mixed together in a black 96-well plate at a volume ratio of 3:1, and the fluorescence intensities were measured using an EnSight microplate reader (PerkinElmer, USA) with excitation at 430 nm, emission at 485 nm (mTFP) and 528 nm (Venus). The dose-response curves were fitted by OriginPro 2016 software (OriginLab) according to the following formula:1 R=Rmax+Rmin−Rmax/1+([L-2-HG]/Kd)^p where R, Rmin, and Rmax refer to the emission ratio of Venus to mTFP, ratio in the absence of L-2-HG, and ratio at saturation with L-2-HG, respectively. The [L-2-HG], Kd, and p refer to the L-2-HG concentration, apparent dissociation constant, and Hill slope, respectively. Emission spectra were recorded at 430 nm excitation, in steps of 2 nm. Excitation spectra were recorded using emission at 550 nm, excitation from 380 to 535 nm in steps of 2 nm. […]
column in the presence of only L-2-HG was used as the control. (c, d) Comparison of the […]
LHGFR0N7C (d). […]
response to D-2-HG (1.85 ± 0.91 mM; black line) than L-2-HG (7.22 ± 0.38 μM; red line). (e-j) Dose-response curves of LHGFR0N3C (e, g, and i) and LHGFR0N7C (f, h, and j) for increasing concentrations (10 nM to 2 mM) of L-2-HG were measured in the presence of 240 μM D-2-HG (e, f), 1 mM 2-KG (g, h), or 1 mM ATP (i, j). […]

LHGFR0N0C = target: T2, LHGFR0N0C; experiment: FRET titration of purified sensor with L-2-HG in 50 mM Tris-HCl pH 7.4, Venus/mTFP emission ratio (excitation 430 nm, emission 528/485 nm), Hill-type fit.; format: binding; conditions: SD, n = 3; read-out: apparent dissociation constant (Kd)
T2 construct: FRET sensor: full-length LhgR between mTFP (N-terminus) and Venus (C-terminus); pETDuet-1, Ni-chelating purification
Method: (§1) Purified L-2-HG biosensors and different compounds were diluted by 50 mM Tris-HCl buffer (pH 7.4), mixed together in a black 96-well plate at a volume ratio of 3:1, and the fluorescence intensities were measured using an EnSight microplate reader (PerkinElmer, USA) with excitation at 430 nm, emission at 485 nm (mTFP) and 528 nm (Venus). The dose-response curves were fitted by OriginPro 2016 software (OriginLab) according to the following formula:1 R=Rmax+Rmin−Rmax/1+([L-2-HG]/Kd)^p where R, Rmin, and Rmax refer to the emission ratio of Venus to mTFP, ratio in the absence of L-2-HG, and ratio at saturation with L-2-HG, respectively. The [L-2-HG], Kd, and p refer to the L-2-HG concentration, apparent dissociation constant, and Hill slope, respectively. Emission spectra were recorded at 430 nm excitation, in steps of 2 nm. Excitation spectra were recorded using emission at 550 nm, excitation from 380 to 535 nm in steps of 2 nm.
(§2) Fig. 3 Design and optimization of the LHGFR. a Schematic representation of the predicted conformational change of LhgR-based L-2-HG biosensor LHGFR in the absence or presence of L-2-HG. […] The emission ratio of Venus to mTFP increased (430 nm excitation) after L-2-HG binding. c Heap map of the truncating the N-terminal and C-terminal amino acids of LhgR to ∆Rmax. […] The emission ratio changes of both biosensors were measured in the presence of 240 μM D-lactate, L-lactate, L-2-HG, D-2-HG, or different intermediates of the TCA cycle and L-lysine catabolism. g, h Reversal of L-2-HG binding with LHGFR by conversion of L-2-HG to 2-KG. […] All data shown are means ± s.d. (n = 3 independent experiments).
(§3) Supplementary Figure 6 Dose-response curves of purified LHGFR variants truncated three to seven C-terminal amino acids in LhgR for L-2-HG. Dose-response curves of LHGFR0N3C […]
(§4) concentrations (10 nM to 2 mM) of L-2-HG were indicated. The maximum ratio change (∆Rmax), apparent dissociation constant (Kd), and R2 were shown in each figure. All data shown are means ± s.d. (n = 3 independent experiments). Source data are provided as a […]

LHGFR0N3C [2] = target: T3, LHGFR0N3C; experiment: as above; format: binding; conditions: SD, n = 3; read-out: apparent dissociation constant (Kd)
T3 construct: FRET sensor: LhgR truncated by three C-terminal amino acids between mTFP (N-terminus) and Venus (C-terminus)
Method: as §1, §2, §3, §4

LHGFR0N7C [3] = target: T1, LHGFR0N7C; experiment: as above; format: binding; conditions: SD, n = 3; read-out: apparent dissociation constant (Kd)
Method: as §1, §2, §3, §4

LHGFR0N3C [4] = target: T3, LHGFR0N3C; experiment: FRET titration of purified sensor with L-2-HG (10 nM to 2 mM) added to filtered human serum, sensor in 50 mM Tris-HCl pH 7.4 mixed 3:1, Venus/mTFP emission ratio.; format: binding; conditions: SD, n = 3
Method: (§5) Purified L-2-HG biosensors and different compounds were diluted by 50 mM Tris-HCl buffer (pH 7.4), mixed together in a black 96-well plate at a volume ratio of 3:1, and the fluorescence intensities were measured using an EnSight microplate reader (PerkinElmer, USA) with excitation at 430 nm, emission at 485 nm (mTFP) and 528 nm (Venus). The dose-response curves were fitted by OriginPro 2016 software (OriginLab) according to the following formula:1 R=Rmax+Rmin−Rmax/1+([L-2-HG]/Kd)^p where R, Rmin, and Rmax refer to the emission ratio of Venus to mTFP, ratio in the absence of L-2-HG, and ratio at saturation with L-2-HG, respectively. […] Emission spectra were recorded at 430 nm excitation, in steps of 2 nm. Excitation spectra were recorded using emission at 550 nm, excitation from 380 to 535 nm in steps of 2 nm.
(§6) In order to test the ability of LHGFR for quantitative analysis L-2-HG in different biological samples, purified LHGFR was diluted by 50 mM Tris-HCl (pH 7.4), while varying concentrations of L-2-HG were added into the serum and urine of a healthy adult and bacteria culture medium and filtered through a 0.22 μm filter, respectively. […] The mixtures of purified LHGFR and L-2-HG in different biological samples were then incubated in a black 96-well plate at a volume ratio of 3:1, and the emission ratios were determined using an EnSight microplate reader. […]

LHGFR0N7C [5] = target: T1, LHGFR0N7C; experiment: as above; format: binding; conditions: SD, n = 3
Method: as §5, §6

LHGFR0N3C [6] = target: T3, LHGFR0N3C; experiment: FRET titration of purified sensor with L-2-HG (10 nM to 2 mM) added to human urine diluted with an equal volume of 50 mM Tris-HCl pH 7.4, mixed 3:1, Venus/mTFP emission ratio.; format: binding; conditions: SD, n = 3
Method: as §5, §6

LHGFR0N7C [7] = target: T1, LHGFR0N7C; experiment: as above; format: binding; conditions: SD, n = 3
Method: as §5, §6

LHGFR0N3C [8] = target: T3, LHGFR0N3C; experiment: FRET titration of purified sensor with L-2-HG (10 nM to 2 mM) added to filtered bacterial culture medium, sensor in 50 mM Tris-HCl pH 7.4 mixed 3:1, Venus/mTFP emission ratio.; format: binding; conditions: SD, n = 3
Method: as §5, §6

LHGFR0N7C [9] = target: T1, LHGFR0N7C; experiment: as above; format: binding; conditions: SD, n = 3
Method: as §5, §6

LHGFR0N3C [10] = test system: T3, LHGFR0N3C; experiment: Emission ratio of sensor in living carbon-starved E. coli BL21(DE3) versus exogenous L-2-HG (100 nM to 10 mM) at 60 min, 37 °C.; format: cell-based; conditions: read-out: apparent Kd of LHGFR0N3C expressed in E. coli BL21(DE3); SD, n = 3
Method: E. coli BL21(DE3) strains harboring either pETDuet-LHGFR0N3C, pETDuet-LHGFR0N7C, or pETDuet-LHGFR3N7C were grown to an OD600 of 0.6 in LB medium at 37 °C, after which the cells were induced overnight in the presence of 1 mM IPTG at 16 °C.
To characterize the sensitivity and specificity of LHGFR expressed in E. coli BL21(DE3), 90 μL cell suspensions following 8 h carbon starvation were mixed with 10 μL increasing concentrations of L-2-HG or other compounds, and then added into a black 96-well plate (total 100 μL/per well), the fluorescence intensities were determined using an EnSight microplate reader (PerkinElmer, USA) and the following instrument settings: excitation at 430 nm, emission at 485 nm (mTFP) and 528 nm (Venus), time intervals of 5 min, the temperature at 37 °C, and shake at 180 rpm. […] In order to analyze functions of CsiD and LhgO in endogenous L-2-HG anabolism and catabolism during carbon starvation, pETDuet-LHGFR0N3C, pETDuet-LHGFR0N7C, or pETDuet-LHGFR3N7C was transferred into E. coli MG1655(DE3) and its variants, and the assays were performed using the same procedure.

LHGFR0N3C [11] = test system: T3, LHGFR0N3C; experiment: Emission ratio of cytosolic sensor in HEK293FT cells permeabilized with 10 uM digitonin versus L-2-HG (10 nM to 10 mM) in Hank's balanced salt solution with 20 mM HEPES.; format: cell-based; conditions: read-out: apparent Kd of LHGFR0N3C expressed in HEK293FT cells; SD, n = 3
Method: To characterize the sensitivity and specificity of LHGFR expressed in HEK293FT cells, cells were trypsinized 48 h following transfection and suspended in 1× Hank’s balanced salt solution supplemented with 20 mM HEPES. […] Digitonin at a concentration of 10 μM was used to induce cell permeabilization and deplete intracellular L-2-HG for in vivo response curves construction. Then, the fluorescence intensities were determined by a SpectraMax i3 fluorescence plate reader (Molecular Devices, USA) with excitation at 430 nm and emission at 485 nm (mTFP) and 528 nm (Venus). Basal L-2-HG concentration in HEK293FT cells under physiological conditions was determined by substituting the emission ratios of non-permeabilized HEK293FT cells into the calibrated in vivo response curves.

| Structure (SMILES) | Kd (LHGFR0N7C [1]) | Kd (LHGFR0N0C) | Kd (LHGFR0N3C [2]) | Kd (LHGFR0N7C [3]) | Kd (LHGFR0N3C [4]) | Kd (LHGFR0N7C [5]) | Kd (LHGFR0N3C [6]) | Kd (LHGFR0N7C [7]) | Kd (LHGFR0N3C [8]) | Kd (LHGFR0N7C [9]) | Kd (LHGFR0N3C [10]) | Kd (LHGFR0N3C [11]) |
| --- | --- | --- | --- | --- | --- | --- | --- | --- | --- | --- | --- | --- |
| O=C(O)CC[C@@H](O)C(=O)O [D-2-HG, D-2-hydroxyglutarate] | 1850 µM |  |  |  |  |  |  |  |  |  |  |  |
| O=C(O)CC[C@H](O)C(=O)O [L-2-HG, L-2-hydroxyglutarate] |  | 2.74 µM | 29.3 µM | 7.22 µM | 27.8 µM | 8.35 µM | 29.5 µM | 7.77 µM | 36.9 µM | 6.65 µM | 892 µM | 43.8 µM |
